Publication PMC7180452, “Purine and Purine Isostere Derivatives of Ferrocene: An Evaluation of ADME, Antitumor and Electrochemical Properties” (Molecules, 2020)
Entries after “also recorded” stand apart in the source; their conditions may differ. Read-outs that look alike come from different tables or passages of the source.

How the values were obtained:
[1] = tested on: metastatic colorectal adenocarcinoma (SW620); experiment: In vitro antiproliferative activity, SW620; type: cell-based, human; settings: SW620 cells
Protocol: (§1) Antiproliferative activity of compounds 11a−11c, 12a−12c, 13a−13c, 14a−14c, 15a−15c, 16a, 23a−23c, 24a−24c, 25a−25c, 34a−34c and 35a−35c was evaluated in vitro on four human tumor cell lines (American Type Culture Collection, Manassas, VA, USA): metastatic colorectal adenocarcinoma (SW620), ductal pancreatic adenocarcinoma (CFPAC-1), hepatocellular carcinoma (HepG2) and cervical carcinoma (HeLa) as well as normal skin fibroblasts (HFF).

[2] = tested on: ductal pancreatic adenocarcinoma (CFPAC-1); experiment: In vitro antiproliferative activity, CFPAC-1; type: cell-based, human; settings: CFPAC-1 cells
Protocol: as §1

[3] = tested on: hepatocellular carcinoma (HepG2); experiment: In vitro antiproliferative activity, HepG2; type: cell-based, human; settings: HepG2 cells
Protocol: as §1

[4] = tested on: cervical carcinoma (HeLa); experiment: In vitro antiproliferative activity, HeLa; type: cell-based, human; settings: HeLa cells
Protocol: as §1

[5] = tested on: normal skin fibroblasts (HFF); experiment: Cytotoxicity on non-tumor cells, HFF; type: cell-based, human
Protocol: as §1

[6] = tested on: MDCKII-hMDR1 cells; experiment: Permeability and P-gp substrate assessment in MDCKII-hMDR1 cell monolayer; type: in vitro ADME, canine; settings: for Permeability classification: MDCKII-hMDR1, in words; for Efflux Ratio (BA/AB) / Papp (AB) / Papp (BA): without P-gp inhibitor; for Papp (AB) / Papp (BA): 10 µM, 60 min
Protocol: The Madin-Darby canine kidney cells with overexpressed human multidrug-resistant gene (MDCKII-hMDR1) have been frequently used to study bidirectional transport of compounds and assess P-gp substrate potential. Apparent permeability (Papp) values were determined from the amount permeated through the MDCKII-hMDR1 cell monolayer in both the apical-basolateral (AB) and basolateral-apical (BA) direction.
MDCKII-hMDR1 cell monolayer was used for determination of permeability and P-gp substrate assessment. MDCKII-hMDR1 cells (Solvo Biotechnology, Szeged, Hungary) were grown in the controlled atmosphere (37 °C, 95% humidity, 5% CO2) in MDCK cell culture medium containing Dulbecco’s Modified Eagle Medium (DMEM) + 10% Fetal bovine serum (FBS, inactivated) + 1% glutamax-100 + 1% antibiotic/antimycotic + 1% of Non-essential amino acids Minimum Essential Medium (MEM NEAA). Cultures were split every 3–4 days using 0.05% Trypsin-EDTA. Cells were seeded 4 days prior to the experiment in concentration of 0.3 × 10^6 cells mL^−1 and cultured in CO2 incubator. On the experiment day, cell monolayers were washed with Dulbecco’s phosphate buffer saline (D-PBS) and equilibrated for 45 min in CO2 incubator in D-PBS containing 1% DMSO (1% v/v) with or without Elacridar (2 µM). Compounds, in final concentration of 10 µM, were prepared in transport medium containing Lucifer yellow (100 µM), with DMSO contentment of 1% (v/v) and in the presence and without Elacridar. Lucifer yellow calibration curve was prepared by serial dilution (12 points, with 100 µM as the highest point). Monolayer integrity was examined by fluorescent measurement on a Microplate reader Infinite F500 (Tecan) by using an excitation of 485 nm and emission of 530 nm. Experiment was started by applying the solutions containing test compounds to apical and basolateral side of the cell monolayer. Starting compound concentration (C0) was sampled at the start of the experiment and apical and basolateral compartments were sampled after incubation at 37 °C with gentle shaking for 60 min. Compound were tested in duplicate. Amprenavir was used as a control with low permeability and as a P-gp substrate without inhibitor presence, turning into a highly permeable compound with the inhibitor present.
Samples were analyzed on an ABSciex API 4000 Triple Quadrupole Mass Spectrometer (Sciex, Division of MDS Inc., Toronto, ON, Canada) coupled to a UHPLC Nexera X2 (Shimadzu, Kyoto, Japan). Samples (1 µL) were injected onto a reversed phase HPLC column Luna Omega Polar C18, 30 × 2.1 mm i.d., 1.6 µm particle size (Phenomenex) which was kept at 50 °C. Aqueous solution was 0.1% formic acid in deionized water and the organic mobile phase was […]. Flow rate was kept at 0.7 mL min^−1 for all measurements. Fast-gradient elution was as follows: 2% of organic mobile phase through 0.15 min, from 2 to 95% of organic mobile phase (0.15−0.7 min), 95% of organic mobile phase (0.7−1.1 min), from 95 to 2% of organic mobile phase (1.1−1.11 min), and re-equilibration with 98% of aqueous mobile phase (1.11−1.5 min). Positive ion mode with turbo spray, an ion source temperature of 550 °C and a dwell time of 75 ms were utilized for mass spectrometric detection. Quantitation was performed using multiple reaction monitoring (MRM) at the specific transition corresponding to the compound of interest. Warfarin was used as an internal standard. The ratios between compound and internal standard peak areas were used instead of real compound concentration. Apparent permeability coefficient, Papp (nm s^−1) values were calculated by using the following Equation (1):Papp [nm s^−1] = (dQ/dT) × (1/C0) × (1/A)(1) where: dQ/dT = permeability rate; C0 = initial concentration in donor compartment; A = surface area of the cell monolayer (0.7 cm^2). […]

[7] = Metabolic stability in mouse liver microsomes; type: in vitro ADME; settings: for t1/2: mouse liver microsomes, 1 µM; for In Vivo CLh (% LBF) / In Vivo CLh: mouse; for In Vivo CLh (% LBF): predicted, % of liver blood flow; for In Vivo CLh: predicted in vivo hepatic clearance
Protocol: (§2) Metabolic stability of compounds was assessed in human and mouse liver microsomes (Corning, Tewksbury, MA, USA). Compounds, in final concentration of 1 µM, were incubated in phosphate buffer (50 mM, pH 7.4) for 60 min at 37 °C together with liver microsomes and NADPH generating system (nicotinamide adenine dinucleotide phosphate (NADP, 0.5 mM), glucose-6-phosphate (G6P, 5 mM), glucose-6-phosphate dehydrogenase (1.5 U mL^−1) and magnesium chloride (0.5 mM)). Also, compounds were incubated without the presence of NADPH cofactor, as a buffer stability control. Metabolic activity of liver microsomes was verified by including testosterone and propranolol as positive controls, as well as caffeine as a negative control. Sampling was performed at six time points (0, 10, 20, 30, 45 and 60 min), followed by reaction termination by addition of acetonitrile/methanol mixture (2:1, v/v) containing dicofenac as internal standard. Samples were analyzed as previously described for samples from permeability assay. The in vitro half-life (t1/2) was calculated from the slope of the linear regression by plotting ln % remaining of parent compound against incubation time. In vitro intrinsic clearance, CLint was calculated from half-life using following Equation (3):(3) CLint [µL min^−1 mg^−1]=ln2/t1/2×mL per incubation/mg protein per incubation where 52.5 mg protein/g liver is used as a constant.
(§3) Predicted in vivo hepatic clearance, in vivo CLh was calculated as follows:(4) in vivo CLh [mL min^−1 kg^−1]=CLint×(mg protein/g liver)×Q×(LW/BW) /Q+(CLint×(mg protein/g liver)×(LW/BW)) where: LW/BW = liver weight/body weight [g kg^−1]; 25.7 (human), 87.5 (mouse); Q = LBF = liver blood flow [mL min^−1 kg^−1]; 21/1.26 (human), 131/7.86 (mouse).
(§4) Predicted in vivo hepatic clearance can be expressed as %LBF and calculated as follows:(5) in vivo CLh [%LBF]=in vivo CLh/LBF×100

[8] = Metabolic stability in human liver microsomes; type: in vitro ADME; settings: for t1/2: 1 µM; for In Vivo CLh (% LBF) / In Vivo CLh: human; for In Vivo CLh (% LBF): predicted, % of liver blood flow; for In Vivo CLh: predicted in vivo hepatic clearance
Protocol: as §2, §3, §4

[9] = Turbidimetric kinetic solubility assay; settings: for Kinetic Solubility: PBS, 1% DMSO, 37 °C, 2 h, estimated range
[10] = Chrom logD determination (fast-gradient HPLC); settings: pH 7.4
[11] = pH 7.4

Structure (SMILES) | IC50 [1] [µM] | IC50 [2] [µM] | IC50 [3] [µM] | IC50 [4] [µM] | Permeability classification [6] | Efflux Ratio (BA/AB) [6] | Papp (AB) [6] [×10⁻⁶ cm/s] | Papp (BA) [6] [×10⁻⁶ cm/s] | t1/2 [7] [min] | In Vivo CLh (% LBF) [7] [% LBF] | t1/2 ([8]; human liver microsomes) [min] | In Vivo CLh (% LBF) [8] [% LBF] | Kinetic Solubility [9] [µM] | Chrom logD [10] | In Vivo CLh [7] [mL/min/kg] | In Vivo CLh [8] [mL/min/kg] | Metabolic stability classification ([8]; human liver microsomes, in words) | Solubility classification ([9]; kinetic solubility, in words) | Chrom logD [11] | IC50 [5] [µM]
Clc1ncnc2ncn(Cc3cn(C[c-]4cccc4)nn3)c12.[Fe+2].c1cc[cH-]c1 [Compound 15a, 6-Chloro-7-[1-(1-ferrocenymethyl-1,2,3-triazol-4-yl)methyl]-7H-purine] | 27.2 ± 5.3 | 34.4 ± 0.43 | 36 ± 1.81 | 28.6 ± 8.28 | moderate AB permeability; also recorded: good permeability | 7.0 | 4.8 | 33.5 | 8.8 | 97 | 51.9 | 58 | >100 | 3.82 | 24.8 | 15.0 | moderate stability | high solubility | – | 13.8 ± 4.17
[Fe+2].c1cc[cH-]c1.c1ccc2c(c1)ncn2Cc1cn(C[c-]2cccc2)nn1 [Compound 23a, 1-[1-(1-Ferrocenylmethyl-1,2,3-triazol-4-yl)methyl]-1H-benzimidazole] | 97 ± 13.6 | 64.6 ± 12.2 | 59.9 ± 10.9 | > 100 | – | – | – | – | – | – | – | – | – | – | – | – | – | – | 4.56 | 23.8 ± 3.32
CC([c-]1cccc1)n1cc(Cn2cnc3ccccc32)nn1.[Fe+2].c1cc[cH-]c1 (centres unmarked) [Compound 23b, 1-[1-(1-Ferrocenyl-1-methylmethyl-1,2,3-triazol-4-yl)methyl]-1H-benzimidazole] | > 100 | 68 ± 13.7 | 83.6 ± 8.61 | 89.6 ± 13.7 | – | – | – | – | – | – | – | – | – | – | – | – | – | – | 4.84 | 31.8 ± 9.81
[Fe+2].c1cc[cH-]c1.c1ccc2c(c1)ncn2Cc1cn(-[c-]2cccc2)nn1 [Compound 23c, 1-[1-(1-Ferrocenyl-1,2,3-triazol-4-yl)methyl]-1H-benzimidazole] | > 100 | > 100 | > 100 | > 100 | – | – | – | – | – | – | – | – | – | – | – | – | – | – | 4.45 | > 100
CC([c-]1cccc1)n1cc(Cn2ccc3ccccc32)nn1.[Fe+2].c1cc[cH-]c1 (centres unmarked) [Compound 24b, 1-[1-(1-Ferrocenyl-1-methylmethyl-1,2,3-triazol-4-yl)methyl]-1H-indole] | > 100 | 87.6 ± 1.79 | > 100 | 89.6 ± 7.64 | – | – | – | – | – | – | – | – | – | – | – | – | – | – | >6.57 | > 100
[Fe+2].c1cc[cH-]c1.c1ccc2c(c1)ccn2Cc1cn(-[c-]2cccc2)nn1 [Compound 24c, 1-[1-(1-Ferrocenyl-1,2,3-triazol-4-yl)methyl]-1H-indole] | > 100 | 84.5 ± 15.8 | 90.9 ± 11.5 | 88.1 ± 1.18 | – | – | – | – | – | – | – | – | – | – | – | – | – | – | >6.57 | > 100
Ic1ccc2c(ccn2Cc2cn(C[c-]3cccc3)nn2)c1.[Fe+2].c1cc[cH-]c1 [Compound 25a, 5-Iodo-1-[1-(1-ferrocenylmethyl-1,2,3-triazol-4-yl)methyl]-1H-indole] | > 100 | > 100 | > 100 | 78.5 ± 9.36 | – | – | – | – | – | – | – | – | – | – | – | – | – | – | >6.57 | > 100

Continued, in another order:

IC50 [1] [µM] | IC50 [2] [µM] | IC50 [3] [µM] | IC50 [4] [µM] | Permeability classification [6] | Efflux Ratio (BA/AB) [6] | Papp (AB) [6] [×10⁻⁶ cm/s] | Papp (BA) [6] [×10⁻⁶ cm/s] | t1/2 [7] [min] | In Vivo CLh (% LBF) [7] [% LBF] | t1/2 ([8]; human liver microsomes) [min] | In Vivo CLh (% LBF) [8] [% LBF] | Kinetic Solubility [9] [µM] | Chrom logD [10] | In Vivo CLh [7] [mL/min/kg] | In Vivo CLh [8] [mL/min/kg] | Metabolic stability classification ([8]; human liver microsomes, in words) | Solubility classification ([9]; kinetic solubility, in words) | Chrom logD [11] | Structure (SMILES) | IC50 [5] [µM]
31.6 ± 0.84 | 32.9 ± 2.46 | 42 ± 5.93 | 38.2 ± 2.3 | moderate to high AB permeability | 2.2 | 8.4 | 18 | 4.4 | 98 | 7.8 | 90 | <1 | 5.62 | – | – | – | – | – | Clc1ncnc2c1ccn2Cc1cn(C[c-]2cccc2)nn1.[Fe+2].c1cc[cH-]c1 [Compound 11a, 4-Chloro-7-[1-(1-ferrocenymethyl-1,2,3-triazol-4-yl)methyl]-7H-pyrrolo[2,3-d]pyrimidine] | 8.57 ± 1.95
32 ± 0.34 | 31.3 ± 4.51 | 34.5 ± 1.36 | 31.4 ± 1.04 | high permeability | 1.5 | 11.8 | 17.4 | – | 100 | 2.3 | 97 | 3 to 10 | 5.94 | 25.7 | 24.9 | – | – | – | CC([c-]1cccc1)n1cc(Cn2ccc3c(Cl)ncnc32)nn1.[Fe+2].c1cc[cH-]c1 (centres unmarked) [Compound 11b, 4-Chloro-7-[1-(1-ferrocenyl-1-methylmethyl-1,2,3-triazol-4-yl)methyl]-7H-pyrrolo[2,3-d] pyrimidine] | 8.88 ± 3.46
62 ± 8.79 | 78 ± 6.61 | 53.6 ± 5.05 | 68.7 ± 2.91 | – | – | – | – | – | – | – | – | – | – | – | – | – | – | >6.57 | [Fe+2].c1cc[cH-]c1.c1ccc2c(c1)ccn2Cc1cn(C[c-]2cccc2)nn1 [Compound 24a, 1-[1-(1-Ferrocenylmethyl-1,2,3-triazol-4-yl)methyl]-1H-indole] | 16.7 ± 8.61
